US6410542B1, “Aminotetrazole derivatives useful as nitric oxide synthase inhibitors” (G. D. Searle & Co., priority 1994, dated 2002)
Where a name gives a salt, the structure may show the parent alone.

Tests used:
[1] = Physical properties on exposure to moisture in room air; assay type: physicochemical; settings: normal room air
Excerpt: It is also an advantage in that the compounds of the present invention have preferred physical properties as compared to compounds known in the art. […] In contrast, NIL, which is disclosed in WO 93/13055 when the hydrochloride salt can be isolated as a colorless crystal, but has the property of deliquescence. The compound quickly becomes a very viscous sticky oil upon exposure to moisture in normal room air which makes it difficult to handle.

[2] = target: Human inducible NOS (hiNOS) (Homo sapiens, UniProt P35228); experiment: Citrulline assay for nitric oxide synthase, hiNOS; assay type: biochemical
Sequence of Human inducible NOS (hiNOS) (P35228 whole entry): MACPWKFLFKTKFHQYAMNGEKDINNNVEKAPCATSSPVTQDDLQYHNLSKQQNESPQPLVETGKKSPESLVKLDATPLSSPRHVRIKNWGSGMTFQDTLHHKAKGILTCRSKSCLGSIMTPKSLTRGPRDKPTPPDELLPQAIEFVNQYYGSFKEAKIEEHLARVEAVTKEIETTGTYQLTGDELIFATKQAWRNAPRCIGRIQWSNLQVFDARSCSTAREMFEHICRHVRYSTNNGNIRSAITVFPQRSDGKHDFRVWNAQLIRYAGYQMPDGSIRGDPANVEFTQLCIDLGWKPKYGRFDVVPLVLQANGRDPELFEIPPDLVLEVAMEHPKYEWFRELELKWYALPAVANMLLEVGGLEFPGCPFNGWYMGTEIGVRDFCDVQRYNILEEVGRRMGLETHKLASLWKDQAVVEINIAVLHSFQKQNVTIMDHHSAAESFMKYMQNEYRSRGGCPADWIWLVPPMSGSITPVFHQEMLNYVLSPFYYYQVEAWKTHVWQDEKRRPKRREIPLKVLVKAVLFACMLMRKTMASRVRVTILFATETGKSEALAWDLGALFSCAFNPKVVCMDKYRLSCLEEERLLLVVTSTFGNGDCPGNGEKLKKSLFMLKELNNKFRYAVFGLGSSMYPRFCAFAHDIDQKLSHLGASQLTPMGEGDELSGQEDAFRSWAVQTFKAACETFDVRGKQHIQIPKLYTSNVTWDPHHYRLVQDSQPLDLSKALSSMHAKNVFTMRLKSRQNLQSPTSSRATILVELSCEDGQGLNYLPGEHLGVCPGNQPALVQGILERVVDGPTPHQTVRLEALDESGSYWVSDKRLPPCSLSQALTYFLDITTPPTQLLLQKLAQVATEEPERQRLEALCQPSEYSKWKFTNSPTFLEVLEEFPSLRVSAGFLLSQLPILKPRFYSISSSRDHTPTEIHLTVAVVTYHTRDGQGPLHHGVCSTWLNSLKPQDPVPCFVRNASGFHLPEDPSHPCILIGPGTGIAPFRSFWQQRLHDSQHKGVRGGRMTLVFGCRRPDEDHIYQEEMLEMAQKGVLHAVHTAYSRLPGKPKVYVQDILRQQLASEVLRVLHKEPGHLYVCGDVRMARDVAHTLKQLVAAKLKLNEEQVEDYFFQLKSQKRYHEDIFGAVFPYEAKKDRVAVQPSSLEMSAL
Protocol: Citrulline Assay for Nitric Oxide Synthase Nitric oxide synthase activity was measured by monitoring the conversion of L-[2,3-3H]-arginine to L-[2,3-3H]-citrulline (1,2). […] For constitutive NOS, calmodulin was included at a final concentration of 40-100 nM. Following incubation at 37° C. for 15 minutes, the reaction was terminated by addition of 300 μL cold buffer containing 10 mM EGTA, 100 mM HEPES (pH5.5) and 1.0 mM L-citrulline. The [3H]-citrulline was separated by chromatography on Dowex 50W X-8 cation exchange resin and radioactivity quantified with a liquid scintillation counter.

Structure (SMILES) | physical form / behaviour on exposure to moisture [1] | Selectivity ([2]; hiNOS over hecNOS) | selectivity compared with NIL ([2]; in words) | IC50 ([2]; recombinant enzyme, L-arginine to L-citrulline conversion, 37° C., 15 minutes)
CC(N)=NCCCC[C@@H](N)C(=O)O [NIL, reference compound] | deliquescence | – | – | –
CC(=N)NCCCC[C@H](N)C(=O)Nc1nnn[nH]1 [Example 1, 2S-amino-6-[(1-iminoethyl)amino]-N-(1H-tetrazol-5-yl) hexanamide, Hydrate, Dihydrochloride] | crystalline product | 113 | more selective than NIL | 21.4 µM
